Reference: ChEMBL document CHEMBL4325931, “Modification of the Thioglycosyl-Naphthalimides as Potent and Selective Human O-GlcNAcase Inhibitors” (ACS Med Chem Lett, 2018)
pIC50, pKi: −log10 of the molar value.

Columns and labels:
[1] = target: T1, Protein O-GlcNAcase (Homo sapiens) (UniProt O60502); test: Inhibition of recombinant human OGA expressed in Escherichia coli BL21 (DE3) at 20 uM using 4-Mu-GlcNAc as substrate preincubated for 10 mins followed by substrate addition and measured after 30 mins by fluorescence assay relative to control
T1 sequence (whole entry): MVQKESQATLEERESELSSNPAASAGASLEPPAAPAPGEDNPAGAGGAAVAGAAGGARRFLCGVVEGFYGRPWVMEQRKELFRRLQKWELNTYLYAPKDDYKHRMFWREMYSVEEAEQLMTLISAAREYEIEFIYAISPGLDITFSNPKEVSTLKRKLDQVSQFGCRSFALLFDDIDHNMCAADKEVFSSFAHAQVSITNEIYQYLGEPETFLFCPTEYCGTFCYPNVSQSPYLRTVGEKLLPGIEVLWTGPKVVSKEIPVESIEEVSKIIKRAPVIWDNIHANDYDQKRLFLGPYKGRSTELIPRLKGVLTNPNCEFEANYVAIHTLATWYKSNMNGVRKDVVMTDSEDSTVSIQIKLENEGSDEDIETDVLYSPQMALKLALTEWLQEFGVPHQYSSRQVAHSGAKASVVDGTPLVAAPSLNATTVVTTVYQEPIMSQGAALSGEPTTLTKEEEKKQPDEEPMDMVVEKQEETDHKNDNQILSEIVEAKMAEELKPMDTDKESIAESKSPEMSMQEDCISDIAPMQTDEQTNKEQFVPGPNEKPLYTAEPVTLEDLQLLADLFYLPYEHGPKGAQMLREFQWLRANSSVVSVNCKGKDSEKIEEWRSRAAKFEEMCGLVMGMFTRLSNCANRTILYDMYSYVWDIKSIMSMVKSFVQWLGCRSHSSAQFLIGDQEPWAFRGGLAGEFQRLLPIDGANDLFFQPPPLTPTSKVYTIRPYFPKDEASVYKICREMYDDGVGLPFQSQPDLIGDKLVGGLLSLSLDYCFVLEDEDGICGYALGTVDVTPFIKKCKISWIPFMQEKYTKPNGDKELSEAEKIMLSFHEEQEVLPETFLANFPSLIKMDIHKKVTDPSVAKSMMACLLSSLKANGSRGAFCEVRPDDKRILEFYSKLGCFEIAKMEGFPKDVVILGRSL

[2] = target: T2, Beta-hexosaminidase subunit beta (Homo sapiens) (UniProt P07686); test: Inhibition of recombinant human His6-tagged HexB expressed in Pichia pastoris at 20 uM using 4-Mu-GlcNAc as substrate preincubated for 10 mins followed by substrate addition and measured after 30 mins by fluorescence assay relative to control
T2 sequence (whole entry): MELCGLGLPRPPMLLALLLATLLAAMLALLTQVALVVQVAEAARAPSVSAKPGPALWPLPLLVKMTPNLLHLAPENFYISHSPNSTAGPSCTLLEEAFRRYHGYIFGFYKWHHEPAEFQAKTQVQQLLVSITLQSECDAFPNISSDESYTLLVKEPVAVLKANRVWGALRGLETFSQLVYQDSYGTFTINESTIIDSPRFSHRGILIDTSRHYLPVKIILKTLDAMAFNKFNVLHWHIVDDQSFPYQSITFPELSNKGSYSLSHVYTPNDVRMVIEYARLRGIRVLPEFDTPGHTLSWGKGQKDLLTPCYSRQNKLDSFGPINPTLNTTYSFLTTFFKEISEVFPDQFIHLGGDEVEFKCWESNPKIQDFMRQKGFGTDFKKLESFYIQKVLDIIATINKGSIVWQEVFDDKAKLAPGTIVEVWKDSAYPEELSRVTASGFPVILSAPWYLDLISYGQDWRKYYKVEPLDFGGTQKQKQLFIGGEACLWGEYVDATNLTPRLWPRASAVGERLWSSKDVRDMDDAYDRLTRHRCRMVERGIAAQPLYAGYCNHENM

Protein O-GlcNAcase [3] = target: T3, Protein O-GlcNAcase (Homo sapiens, UniProt O60502); test: Inhibition of recombinant human OGA expressed in Escherichia coli BL21 (DE3) using varying levels of 4-Mu-GlcNAc as substrate preincubated for 10 mins followed by substrate addition and measured after 30 mins by dixon plot analysis
T3 sequence (O60502 whole entry): T1 sequence (whole entry)

[4] = target: T4, Beta-hexosaminidase subunit beta (Homo sapiens, UniProt P07686); test: Inhibition of recombinant human His6-tagged HexB expressed in Pichia pastoris using varying levels of 4-Mu-GlcNAc as substrate preincubated for 10 mins followed by substrate addition and measured after 30 mins by dixon plot analysis
T4 sequence (P07686 whole entry): T2 sequence (whole entry)

Homo sapiens = species: Homo sapiens; test: Selectivity ratio of Ki for recombinant human His6-tagged HexB expressed in Pichia pastoris to Ki for recombinant human OGA expressed in Escherichia coli BL21 (DE3)
[5] = target: T2, Beta-hexosaminidase subunit beta (Homo sapiens); test: Inhibition of recombinant human His6-tagged HexB expressed in Pichia pastoris at 100 uM using varying levels of 4-Mu-GlcNAc as substrate preincubated for 10 mins followed by substrate addition and measured after 30 mins by dixon plot analysis relative to control
[6] = target: T4, Beta-hexosaminidase subunit beta; test: Inhibition of recombinant human His6-tagged HexB expressed in Pichia pastoris using 4-Mu-GlcNAc as substrate preincubated for 10 mins followed by substrate addition and measured after 30 mins by fluorescence assay
Protein O-GlcNAcase [7] = target: T3, Protein O-GlcNAcase; test: Inhibition of recombinant human OGA expressed in Escherichia coli BL21 (DE3) using 4-Mu-GlcNAc as substrate preincubated for 10 mins followed by substrate addition and measured after 30 mins by fluorescence assay
[8] = Inhibition of Ostrinia furnacalis beta-N-acetylhexosaminidase using pNP-beta-GlcNAc as substrate by dixon plot analysis
[9] = target: Beta-hexosaminidase (Homo sapiens); test: Inhibition of human beta-N-acetylhexosaminidase using pNP-beta-GlcNAc as substrate by dixon plot analysis
[10] = target: T1, Protein O-GlcNAcase (Homo sapiens); test: Inhibition of recombinant human OGA expressed in Escherichia coli BL21 (DE3) at 20 uM using 4-Mu-GlcNAc as substrate measured after 30 mins by fluorescence assay relative to control
[11] = target: T2, Beta-hexosaminidase subunit beta (Homo sapiens); test: Inhibition of recombinant human His6-tagged HexB expressed in Pichia pastoris at 20 uM using 4-Mu-GlcNAc as substrate measured after 30 mins by fluorescence assay relative to control

inhibition [1] | inhibition [2] | pKi (Protein O-GlcNAcase [3]) | pKi [4] | Ratio Ki (Homo sapiens) | SMILES | also measured
34.3% | 39% | – | – | – | COc1ccc2c3c(cccc13)C(=O)N(CCNCCCS[C@@H]1O[C@H](CO)[C@@H](O)[C@H](O)[C@H]1NC(C)=O)C2=O | –
20% | 0% | – | – | – | CC(=O)N[C@@H]1[C@@H](O)[C@H](O)[C@@H](CO)O[C@H]1SCCCNCCCN1C(=O)c2cccc3c([N+](=O)[O-])ccc(c23)C1=O | –
75.7% | 60.6% | 5.46 | 5.29 | 1.5 | CC(=O)N[C@@H]1[C@@H](O)[C@H](O)[C@@H](CO)O[C@H]1SCCCNCCN1C(=O)c2cccc3c(Br)ccc(c23)C1=O | –
68% | 45.2% | 4.80 | 4.61 | 1.6 | COc1ccc2c3c(cccc13)C(=O)N(CCCNCCCS[C@@H]1O[C@H](CO)[C@@H](O)[C@H](O)[C@H]1NC(C)=O)C2=O | –
83.3% | 70.8% | 6.10 | 5.80 | 2 | CC(=O)N[C@@H]1[C@@H](O)[C@H](O)[C@@H](CO)O[C@H]1SCCNCCCN1C(=O)c2cccc3c(Cl)ccc(c23)C1=O | –
49.1% | 0% | – | – | – | CC(=O)N[C@@H]1[C@@H](O)[C@H](O)[C@@H](CO)O[C@H]1SCCCNCCCN1C(=O)c2cccc3c(N4CCCCC4)ccc(c23)C1=O | –
73.1% | 47.9% | 5.80 | 4.66 | 13.8 | COc1ccc2c3c(cccc13)C(=O)N(CCCNCCS[C@@H]1O[C@H](CO)[C@@H](O)[C@H](O)[C@H]1NC(C)=O)C2=O | –
73.2% | 73.3% | 5.92 | 5.59 | 2.2 | CC(=O)N[C@@H]1[C@@H](O)[C@H](O)[C@@H](CO)O[C@H]1SCCNCCN1C(=O)c2cccc3c(Br)ccc(c23)C1=O | –
28.2% | 0% | – | – | – | CC(=O)N[C@@H]1[C@@H](O)[C@H](O)[C@@H](CO)O[C@H]1SCCCNCCCN1C(=O)c2cccc3c(N(C)C)ccc(c23)C1=O | –
67.5% | 0% | 5.49 | – | > 31.2 | CC(=O)N[C@@H]1[C@@H](O)[C@H](O)[C@@H](CO)O[C@H]1SCCCNCCN1C(=O)c2cccc3c(N4CCCCC4)ccc(c23)C1=O | inhibition [5]: < 50%
84.7% | 70.5% | 6.05 | 5.74 | 2 | CC(=O)N[C@@H]1[C@@H](O)[C@H](O)[C@@H](CO)O[C@H]1SCCNCCCN1C(=O)c2cccc3c(Br)ccc(c23)C1=O | –
40.9% | 0% | – | – | – | CC(=O)N[C@@H]1[C@@H](O)[C@H](O)[C@@H](CO)O[C@H]1SCCNCCCN1C(=O)c2cccc3c(N(C)C)ccc(c23)C1=O | –
32.6% | 0% | – | – | – | CC(=O)N[C@@H]1[C@@H](O)[C@H](O)[C@@H](CO)O[C@H]1SCCNCCN1C(=O)c2cccc3c(N(C)C)ccc(c23)C1=O | pIC50 [6]: < 4.00; pIC50 (Protein O-GlcNAcase [7]): 4.60
26.6% | 0% | – | – | – | CC(=O)N[C@@H]1[C@@H](O)[C@H](O)[C@@H](CO)O[C@H]1SCCCNCCN1C(=O)c2cccc3c(N(C)C)ccc(c23)C1=O | –
– | – | – | – | – | Cc1nnc(CNCCN2C(=O)c3cccc4cccc(c34)C2=O)s1 | pKi [8]: 5.37; pKi [9]: 5.66
66.1% | 73.8% | 5.70 | 5.92 | 0.6 | CC(=O)N[C@@H]1[C@@H](O)[C@H](O)[C@@H](CO)O[C@H]1SCCNCCN1C(=O)c2cccc3c(Cl)ccc(c23)C1=O | –
55% | 8% | 5.08 | – | > 12 | CC(=O)N[C@@H]1[C@@H](O)[C@H](O)[C@@H](CO)O[C@H]1SCCNCCCN1C(=O)c2cccc3c([N+](=O)[O-])ccc(c23)C1=O | inhibition [5]: < 50%
83.6% | 75.2% | 6.15 | 5.80 | 2.3 | CC(=O)N[C@@H]1[C@@H](O)[C@H](O)[C@@H](CO)O[C@H]1SCCCNCCN1C(=O)c2cccc3c(Cl)ccc(c23)C1=O | –
– | – | – | – | – | Cc1nnc(CNCCN2C(=O)c3cccc4c(N(C)C)ccc(c34)C2=O)s1 | pKi [8]: 6.52; pKi [9]: < 4.00
59.2% | 65% | 5.66 | 5.36 | 2 | CC(=O)N[C@@H]1[C@@H](O)[C@H](O)[C@@H](CO)O[C@H]1SCCCNCCCN1C(=O)c2cccc3c(Br)ccc(c23)C1=O | –
25.1% | 13.8% | – | – | – | CC(=O)N[C@@H]1[C@@H](O)[C@H](O)[C@@H](CO)O[C@H]1SCCNCCN1C(=O)c2cccc3c([N+](=O)[O-])ccc(c23)C1=O | –
68.9% | 74.3% | 5.68 | 5.74 | 0.9 | CC(=O)N[C@@H]1[C@@H](O)[C@H](O)[C@@H](CO)O[C@H]1SCCCNCCCN1C(=O)c2cccc3c(Cl)ccc(c23)C1=O | –
56.4% | 22.5% | 5.17 | 4.25 | 8.4 | COc1ccc2c3c(cccc13)C(=O)N(CCNCCS[C@@H]1O[C@H](CO)[C@@H](O)[C@H](O)[C@H]1NC(C)=O)C2=O | –
36.7% | 0% | – | – | – | CC(=O)N[C@@H]1[C@@H](O)[C@H](O)[C@@H](CO)O[C@H]1SCCNCCN1C(=O)c2cccc3c(N4CCCCC4)ccc(c23)C1=O | –
87.6% | 0% | 6.22 | – | > 167 | CC(=O)N[C@@H]1[C@@H](O)[C@H](O)[C@@H](CO)O[C@H]1SCCNCCCN1C(=O)c2cccc3c(N4CCCCC4)ccc(c23)C1=O | inhibition [5]: < 50%
– | – | – | – | 8 | CC(=O)N[C@@H]1[C@@H](O)[C@H](O)[C@@H](CO)O[C@H]1SCCNCCCN1C(=O)c2cccc3cccc(c23)C1=O | inhibition [10]: 82.4%; inhibition [11]: 38.7%
25.6% | 0% | – | – | – | CC(=O)N[C@@H]1[C@@H](O)[C@H](O)[C@@H](CO)O[C@H]1SCCCNCCN1C(=O)c2cccc3c([N+](=O)[O-])ccc(c23)C1=O | –
